From patent US12622915B2, “Methods of treating PDE IV-mediated diseases or conditions” (Vanda Pharmaceuticals Inc., priority 2020, dated 2026)

Key:
[1] = target: T1, Phosphodiesterase PDE4D2 (Homo sapiens, UniProt Q08499); test: Phosphodiesterase PDE4D2 enzyme assay; assay type: biochemical
T1 construct: host or cells: insect Sf9 cells
Description: Roliprami is used as a reference standard.
PDE4 assays are performed using methods adapted from the literature. See Houslay MD (2005) The long and short of vascular smooth muscle phosphodiesterase-4 as a putative therapeutic target. Mol Pharmacol. 68(3):563-567; MacKenzie S J and Houslay M D (2000) Action of rolipram on specific PDE4 cAMP phosphodiesterase isoforms and on the phosphorylation of cAMP-response element-binding protein (CREB) and p38 mitogen-activated protein (MAP) kinase in U937 monocytic cells. Biochem J. 347(Pt 2): 571-578.
Phosphodiesterase PDE4D2: • Source: Human recombinant insect Sf9 cells • Substrate: 0.10 μM FAM-cAMP • Vehicle: 1.00% DMSO • Significance Crit.: ≥50% of max stimulation or inhibition • Incubation Buffer: 10 mM Tris-HCl, pH 7.2, 10 mM MgCl2, 0.05% NaN3, 0.1% phosphate-free BSA • Quantitation Method: Quantitation of Fluorescein-AMP-IMAP • Pre-Incub. Time/Temp: 15 minutes @25° C. • Incubation Time/Temp: 15 minutes @25° C.
IC50 values are determined by a non-linear, least squares regression analysis using MathIQ™ (ID Business Solutions Ltd., UK). Where inhibition constants (Ki) are presented, the Ki values are calculated using the equation of Cheng and Prusoff (Cheng, Y., Prusoff, W.H., Biochem. Pharmacol. 22:3099-3108, 1973) using the observed IC50 of the tested compound, the concentration of radioligand employed in the assay, and the historical values for the KD of the ligand (obtained experimentally at Eurofins Panlabs, Inc.). Where presented, the Hill coefficient (nH), defining the slope of the competitive binding curve, is calculated using MathIQ™. […] Where IC50, Ki, and/or nH data are presented without Standard Error of the Mean (SEM), data are insufficient to be quantitative, and the values presented (Ki, IC50, nH) are interpreted with caution.

[2] = test system: PMA-induced ear thickening and ear weight gain; test: PMA-induced ear inflammation model (Example 1); assay type: in vivo, BALB/c; conditions: 6 hours post PMA, topical 0.5% w/v on both ears 30 min before and 15 min after PMA
Description: Animals in group 2, 3, and 4 receive dexamethasone, Crisaborole and the compound of Formula (I), respectively (as a solution in acetone and ethanol by 1:1 ratio), 30 min before PMA challenge, on both ears.
• −24 hr—Randomization (body weight based) • −30 min—Treatment Topical • 0 min—Disease Induction PMA application • 15 min—Treatment Topical • 6 hr—Skin Thickness, Skin Collection (Cohort 1) • 24 hr—Skin Thickness, Skin Collection (Cohort 2)
5 μg/20 μl/right ear and 5 μg/20 μl/left ear (2.5 μg/10 μl in anterior and posterior surface of both ears)
Phorbol 12-myristate 13-acetate (PMA) is formulated in acetone at a concentration of 250 μg/ml. This working solution is applied topically to the anterior and posterior surface of both the ear (10 μl each side).
Ear thickness (both right and left ear): at −1 hr (before PMA challenge), 6 hr and 24 hrs post PMA challenge.
At 6 hr and 24 hrs, respective cohort of animals are euthanized, and ear tissues are collected. […] Left ears are collected and preserved in 10% NBF for Histopathology.

[3] = target: T2, Phosphodiesterase PDE2A (Homo sapiens, UniProt O00408); test: Phosphodiesterase PDE2A enzyme assay; assay type: biochemical; conditions: N=2, Example 3
T2 construct: host or cells: insect Sf9 cells
T2 sequence (O00408 whole entry): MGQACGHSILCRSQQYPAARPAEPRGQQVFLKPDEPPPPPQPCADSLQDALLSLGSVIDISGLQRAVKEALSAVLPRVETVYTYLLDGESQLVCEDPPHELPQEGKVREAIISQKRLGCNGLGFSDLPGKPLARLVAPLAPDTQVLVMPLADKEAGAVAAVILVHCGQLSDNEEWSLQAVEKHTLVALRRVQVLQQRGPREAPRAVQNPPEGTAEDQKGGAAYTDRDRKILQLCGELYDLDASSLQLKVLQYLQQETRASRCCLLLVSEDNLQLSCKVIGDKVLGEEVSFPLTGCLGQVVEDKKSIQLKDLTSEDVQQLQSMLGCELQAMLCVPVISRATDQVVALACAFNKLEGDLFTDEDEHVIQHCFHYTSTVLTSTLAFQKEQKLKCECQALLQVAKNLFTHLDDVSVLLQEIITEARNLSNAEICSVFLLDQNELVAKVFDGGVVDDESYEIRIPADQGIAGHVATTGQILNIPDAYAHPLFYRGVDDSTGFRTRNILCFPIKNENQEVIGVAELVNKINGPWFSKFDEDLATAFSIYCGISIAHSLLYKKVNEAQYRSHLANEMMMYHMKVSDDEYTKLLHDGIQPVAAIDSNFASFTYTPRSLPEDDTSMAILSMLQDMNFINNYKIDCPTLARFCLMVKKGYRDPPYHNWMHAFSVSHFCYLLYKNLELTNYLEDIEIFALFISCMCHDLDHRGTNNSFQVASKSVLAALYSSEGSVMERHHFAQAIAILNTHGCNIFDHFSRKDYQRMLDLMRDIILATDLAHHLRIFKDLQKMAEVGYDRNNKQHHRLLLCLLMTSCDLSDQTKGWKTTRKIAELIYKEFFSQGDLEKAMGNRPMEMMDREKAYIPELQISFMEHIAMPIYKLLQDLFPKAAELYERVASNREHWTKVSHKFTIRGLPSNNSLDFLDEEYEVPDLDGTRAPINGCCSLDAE
From the text: Reference standards are run as an integral part of each assay to ensure the validity of the results obtained. Reference Compounds: • Phosphodiesterase PDE10A2 Papaverine • Phosphodiesterase PDE11A4 Dipyridamole • Phosphodiesterase PDE1A MMPX • Phosphodiesterase PDE2A EHNA • Phosphodiesterase PDE3A Cilostamide • Phosphodiesterase PDE4A1A Rolipram • Phosphodiesterase PDE4B1 Rolipram • Phosphodiesterase PDE5A Zaprinast • Phosphodiesterase PDE6 Zaprinast • Phosphodiesterase PDE7A IBMX • Phosphodiesterase PDE7B IBMX • Phosphodiesterase PDE8A1 Dipyridamole • Phosphodiesterase PDE9A2 Zaprinast
Phosphodiesterase PDE4A1A; Phosphodiesterase PDE4B1; Phosphodiesterase PDE10A2; Phosphodiesterase PDE11A4; Phosphodiesterase PDE2A; Phosphodiesterase PDE3A; Phosphodiesterase PDE7A; Phosphodiesterase PDE7B; and Phosphodiesterase PDE8A1: • Source: Human recombinant insect Sf9 cells • Substrate: 0.10 μM FAM-cAMP • Vehicle: 1.00% DMSO • Significance Crit.: ≥50% of max stimulation or inhibition • Incubation Buffer: 10 mM Tris-HCl, pH 7.2, 10 mM MgCl2, 0.05% NaN3, 0.1% phosphate-free BSA • Quantitation Method: Quantitation of Fluorescein-AMP-IMAP • Pre-Incub. Time/Temp: 15 minutes @25° C. • Incubation Time/Temp: 30 minutes @25° C.
IC50 values are determined by a non-linear, least squares regression analysis using MathIQ™ (ID Business Solutions Ltd., UK). […]

[4] = Ocular instillation studies; assay type: in vivo; conditions: preclinical ocular instillation studies

T1 sequence (Q08499 303-809 limits assumed): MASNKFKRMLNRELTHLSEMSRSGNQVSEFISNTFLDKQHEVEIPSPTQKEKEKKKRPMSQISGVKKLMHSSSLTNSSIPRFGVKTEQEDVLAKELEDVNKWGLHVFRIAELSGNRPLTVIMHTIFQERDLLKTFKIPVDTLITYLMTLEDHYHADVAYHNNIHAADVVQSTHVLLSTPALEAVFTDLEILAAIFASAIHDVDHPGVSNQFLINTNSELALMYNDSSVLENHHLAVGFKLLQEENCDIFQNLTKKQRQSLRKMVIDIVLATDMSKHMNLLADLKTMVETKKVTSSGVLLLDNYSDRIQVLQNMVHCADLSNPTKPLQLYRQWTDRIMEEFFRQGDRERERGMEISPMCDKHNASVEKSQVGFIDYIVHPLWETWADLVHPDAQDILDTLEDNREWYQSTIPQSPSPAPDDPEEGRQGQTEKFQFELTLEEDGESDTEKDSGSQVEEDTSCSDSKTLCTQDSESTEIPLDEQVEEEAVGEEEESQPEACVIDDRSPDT

CNc1nc(Nc2ccccc2)nc(OCC(F)(F)C(F)F)n1 [compound of Formula (I), N^2-methyl-N^4-phenyl-6-(2,2,3,3-tetrafluoropropoxy)-1,3,5-triazine-2,4-diamine]
inhibition at 0.03 µM ([1]; 0.03 μM, N=2, Example 5): 70%
inhibition at 0.1 µM ([1]; 0.1 μM, N=2, Example 5): 83%
inhibition at 0.3 µM ([1]; 0.3 μM, N=2, Example 5): 91%
inhibition at 1 µM ([1]; 1 μM, N=2, Example 5): 96%
inhibition at 3 µM ([1]; 3 μM, N=2, Example 5): 97%
inhibition at 10 µM ([1]; 10 μM (first line, r2), N=2, Example 5): 99%
IC50 ([1]; Example 5): 6.19 nM
PMA-induced ear thickening [2]: prevents or reduces
PMA-induced ear weight gain [2]: prevents or reduces
inhibition at 10 µM [3]: 9%
Tolerability on ocular instillation [4]: well tolerated
